Among the data in PubChem BioAssay AID179 (DTP/NCI, 2004) are EC50, IC50 and outcome values, retold here.

The test system of the assay is CEM cells HIV-1 protection, formazan growth assay. Description: NCI AIDS Antiviral Assay. The settings on record: for IC50: measured here: growth of uninfected CEM cells. Put shortly:
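Category rules: moderately active means at least 50% protection on retest, and confirmed active means 100% protection reproducibly. The underlying data came from a formazan growth assay in HIV-1-infected CEM cells.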

Active and inactive are the calls of the source.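 How the source made its calls: active means compounds giving half or more protection of infected cells from virus-caused growth loss, again on retest; inactive means the rest.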

One may read the EC50 as the concentration at which the effect is half-maximal. By IC50 is commonly meant the concentration needed to halve the response being measured. Lower therefore signals inhibition by little substance. `Cc1cc(S(=O)(=O)Nc2nnc3ccc4ccccc4n23)c(S)cc1Cl`: the EC50 is over 200 µM and the IC50 amounted to 30.9 µM. Regarding `O=C(C/C(=N/O)C(F)(F)F)c1cccs1`, the EC50 is over 200 µM and the IC50 is over 200 µM. On to `CC12C(=C(C#N)C(=N)N1c1ccc(Cl)c(Cl)c1)C=C(O)CC2SCCS(=O)(=O)O` (stereo unspecified), for which the concentration for a half-maximal effect (EC50) was 33.1 µM and the 50% inhibitory concentration (IC50) was found to be 67.6 µM.

Regarding `NCCCNCCCCN(CCCN)/[N+]([O-])=N\O`, the EC50 was over 6030 µM and the IC50 turned out to be 145 µM.

`CC(O)(c1ccccc1)c1nccc2ccccc12` (stereo unspecified): the EC50 was over 200 µM and the IC50 is 77.6 µM. Turning to `CCNC(=S)N/N=C/c1ccccn1`, the EC50 is over 200 µM and the IC50 worked out at 0.851 µM.

As to `N#CC1C(=S)NC(c2ccccc2)=CC12CCCCC2` (stereo unspecified), the EC50 is over 200 µM and the IC50 turned out to be 42.7 µM. The like results for `O=S1(=O)Cc2ccccc21` were, in that order, over 1170 µM and 589 µM. Take `NC1CC(=O)c2c1sc(Cl)c2Cl` (stereo unspecified): the outcome was inactive. As for `CCC(C)(C)/C(CC(O)(C(F)(F)F)C(F)(F)F)=N\O`, the EC50 is over 200 µM and the IC50 is over 200 µM. On to `CCc1ccccc1NC(=O)C1=C(C)NC(C)=C(C(=O)Nc2ccccc2CC)C1c1ccc(NC(C)=O)cc1`, for which the EC50 was over 34.7 µM and the IC50 was over 34.7 µM. Take `COP1(=O)OC(C)=C(C)c2cccn21` (stereo unspecified): the EC50 was over 60.3 µM and the IC50 was over 60.3 µM.

Take `O=C(c1ccccc1[N+](=O)[O-])C(Br)C(Br)c1ccc(Cl)c(Cl)c1` (stereo unspecified): the EC50 was over 20 µM and the IC50 stood at 1 µM.

Regarding `N#Cc1cc([N+](=O)[O-])ccc1NC(=O)/C(=N/N)C(C(=O)c1ccc(Cl)c(Cl)c1)C1OC(=O)c2ccccc21` (stereo unspecified), the EC50 was over 64.6 µM and the IC50 was over 64.6 µM. Regarding `COC(=O)C(C)(C)C(OP1(=S)N(C)CCN1C)=C(C)C`, the EC50 is over 155 µM and the IC50 is over 155 µM. For `CN(C)c1ccc(-c2nc(-c3cc4c(ccc5ccccc54)oc3=O)cs2)cc1`, the EC50 is over 100 µM and the IC50 was over 100 µM. With `CCOC(=O)CC(SP1(=S)OCC2(CC=CCC2)CO1)C(=O)OCC` (stereo unspecified), the EC50 was over 200 µM and the IC50 is 93.3 µM. Turning to `OC(CN(CCCl)CCCl)C(O)C(O)C(O)CN(CCCl)CCCl` (stereo unspecified), the outcome was inactive. `COc1cc([N+](=O)[O-])c(S(=O)(=O)O)cc1-n1nc(C(=O)Nc2ccccc2)n[n+]1-c1cc(S(=O)(=O)[O-])c([N+](=O)[O-])cc1OC`: the EC50 is over 372 µM and the IC50 came to 288 µM.

Consider `Cc1cc2ccccc2n1CC(=O)N1CCCC1`, for which the EC50 is over 200 µM and the IC50 is over 200 µM. `C[C@]12CCc3nonc3C1CC[C@@H]1C2CC[C@]2(C)NC(=O)CCC12` (stereo partly specified): the EC50 was over 51.3 µM and the IC50 is over 51.3 µM.

`c1ccc(P2c3ccccc3Oc3ccccc32)cc1`: the EC50 was over 200 µM and the IC50 was found to be 35.5 µM. As to `CC(C)[Si](OCC1CC(C#N)OC(C)(C)O1)(C(C)C)C(C)C` (stereo unspecified), the EC50 is over 200 µM and the IC50 was found to be 107 µM. In the case of `COCC1OCCN1C` (stereo unspecified), the EC50 is over 200 µM and the IC50 was over 200 µM. As to `COc1cc(/C=C/C(=O)c2c(=O)o[nH][n+]2-c2ccccc2)ccc1[O-]`, the result was inactive. `CCCCCCCCCCCCCCCCCCOCC(CO[P+](=O)O)OCCCCCCCCCCCCCCCCCC` (stereo unspecified): the EC50 is over 50.1 µM and the IC50 was over 50.1 µM. Turning to `CC(C)C(O)C(=O)C(Sc1ccccc1)C(C)C` (stereo unspecified), the EC50 was over 355 µM and the IC50 is 240 µM. On to `CC(=O)N1C(=O)C2(NCCCN2)c2ccccc21`, for which the EC50 was over 40.7 µM and the IC50 is over 40.7 µM.

Take `Clc1ccc2c(SCC3CO3)c3ccccc3nc2c1` (stereo unspecified): the EC50 was over 200 µM and the 50% inhibitory concentration (IC50) came to 2.57 µM.

In the case of `CCOC(=O)c1c[nH]c2cc(OCC3CC3)c(OCC3CC3)cc2c1=O`, the EC50 was over 200 µM and the IC50 was over 200 µM. Consider `CC(C)(C)c1cc(C(O)(C(F)(F)F)C(F)(F)F)c(S)c(C(O)(C(F)(F)F)C(F)(F)F)c1`, for which the EC50 is over 200 µM and the IC50 was 3.47 µM. Taken in the same sequence, the figures for `COC1CCCCC1C(N)C(=O)O` (stereo unspecified) (tested in a mixture with another compound) were over 200 µM and over 200 µM.

With `CN(C)C12CCCCCCC1S(=O)(=O)C2` (stereo unspecified), the EC50 was over 363 µM and the IC50 worked out at 302 µM.

`O=C(O)c1c2c(nc3ccccc13)CCCC2`: the EC50 is over 398 µM and the IC50 was over 398 µM. Take `CCC1(C)C=Cc2c(cc(OC)c3c(=O)c4ccccc4n(C)c23)O1` (stereo unspecified): the EC50 was over 200 µM and the IC50 was 24.5 µM.

For `CN(C)c1ccc(C(=C2C=CC(=[N+](C)C)C=C2)c2c(O)c(S(=O)(=O)O)cc3cc(S(=O)(=O)O)ccc23)cc1`, the outcome was inactive.

Consider `Oc1cc(Br)cc2cccnc12`, for which the outcome was inactive. On to `COC(=O)C(C(=O)C(N)=O)c1csc(-n2nc(-c3ccccc3)cc2-c2ccccc2)n1` (stereo unspecified), for which the EC50 is over 61.7 µM and the IC50 was found to be 53.7 µM. As to `Cc1ccc(S(=O)(=O)/C(C#N)=C\N2CCNC2=S)cc1`, the EC50 is over 200 µM and the IC50 is over 200 µM. For `CN(C)CC1CCCC/C1=N/OC(=O)c1ccc(Cl)c(Cl)c1` (stereo unspecified), the outcome was inactive. As to `CN=C(NC)NCc1ccccc1`, the EC50 is over 200 µM and the concentration for half-maximal inhibition (IC50) came to 178 µM. The like results for `NC(=O)CCNC(=O)c1ccccc1SC(=O)OCCBr` were, in that order, 6.31 µM and over 200 µM. The like results for `CC1(C)OCC2(CO1)CSCCCSCC1(COC(C)(C)OC1)CSCCCSC2` were, in that order, over 10.5 µM and over 10.5 µM. Regarding `Cc1ccc(S(=O)(=O)OC[C@@H]2CO2)cc1`, the EC50 is over 115 µM and the IC50 came out at 14.1 µM.

For the compound `CN(C)c1ccc2c(c1)-c1cc(N(C)C)ccc1C2=CC=C1C(=O)NC(=O)NC1=O`, the EC50 is over 3.39 µM and the 50% inhibitory concentration (IC50) is over 3.39 µM.

Consider `CN(/N=C/c1cccc2cccnc12)c1ccc([N+](=O)[O-])cc1`, for which the outcome was inactive. As for `CC1(Br)C2c3ccccc3C(c3ccccc32)C1(C)C(Cl)(Cl)Cl` (stereo unspecified), the EC50 is over 16.6 µM and the 50% inhibitory concentration (IC50) was over 16.6 µM.

With `Cc1cn(C2CCC(CO)(C(F)(F)F)O2)c(=O)[nH]c1=O` (stereo unspecified), the EC50 was over 200 µM and the IC50 was over 200 µM. As to `O=C1c2ccccc2/C=C\C(c2ccccc2)=N/N1c1ccccc1Cl`, the EC50 was over 200 µM and the 50% inhibitory concentration (IC50) worked out at 12.6 µM. For the compound `C(=C\c1ccnc2ccccc12)/c1cccnc1`, the EC50 is over 155 µM and the IC50 is 42.7 µM. For `COc1cc(CNC(=S)CCCCCCCCCCC(C)C)ccc1O`, the result was inactive. As for `O=S(=O)(NCCSSCCNS(=O)(=O)c1ccccc1)c1ccccc1`, the EC50 was over 200 µM and the 50% inhibitory concentration (IC50) was 13.5 µM. With `Cc1nc(C)c(C(=O)NNC(=O)C[n+]2ccccc2)cc1C(=O)NNC(=O)C[n+]1ccccc1`, the EC50 was over 200 µM and the IC50 was over 200 µM. Consider `O=C(O)/C=C/C(=O)NCCCCCCNC(=O)/C=C/C(=O)O`, for which the result was inactive. Regarding `CCCCNC(=S)Nc1nc(C(=O)NNC(=S)NCc2ccccc2)cs1`, the EC50 was over 126 µM and the half-inhibitory concentration (IC50) stood at 26.3 µM.
